From patent US7119075B2, “Use of herbal agents for potentiation of bioefficacy of anti infectives” (priority 2003, dated 2006)
In brackets after ≈: the same amount, converted by molar mass.

Tests used:
Type in all cases: cell-based
[1] = tested on: M. tuberculosis; assay: MIC of drugs alone and with bioenhancer (Table 7); settings: for MIC: Mycobacterium tuberculosis, Drug alone
[2] = tested on: Yeast; assay: MIC of drugs alone and with bioenhancer (Table 7)
[3] = tested on: Gram negative bacteria; assay: organism not typed; settings: for MIC: read-out: MIC Drug alone
[4] = tested on: Gram positive bacteria; assay: organism not typed; settings: for MIC: read-out: MIC Drug alone
[5] = tested on: Filamentous fungi; assay: organism not typed; settings: Drug alone

With `NNC(=O)c1ccncc1` [Isoniazid] the MIC [1] was 0.12 to 32 µg/mL.

`NC(=O)c1cnccn1` [Pyrazinamide] was tested, and the MIC [1] was 6 to 60 µg/mL.

For `OC(Cn1cncn1)(Cn1cncn1)c1ccc(F)cc1F` [Fluconazole], the MIC ([2]; Saccharomyces cerevisiae, read-out: MIC Drug alone) was 0.12 to 64 µg/mL.

For `CO/N=C(\C(=O)N[C@@H]1C(=O)N2C(C(=O)O)=C(CSc3nc(=O)c(O)nn3C)CS[C@H]12)c1csc(N)n1` [Ceftrioxone], the “MIC Drug alone” value [3] was 0.03 to 32 µg/mL and the “MIC Drug alone” value [4] was 0.12 to 32 µg/mL.

With `CC1COc2c(N3CCN(C)CC3)c(F)cc3c(=O)c(C(=O)O)cn1c23` (stereo not shown) [Ofloxacin] the “MIC Drug alone” value [1] was 0.5 to 25 µg/mL, the MIC [1] was 0.5 to 2.5 µg/mL and the MIC [3] was 0.06 to 32 µg/mL (≈ 0.166 to 88.6 µM). The MIC [4] was 0.12 to 32 µg/mL (≈ 0.332 to 88.6 µM).

With `COCC1=C(C(=O)O)N2C(=O)[C@@H](NC(=O)/C(=N\OC)c3csc(N)n3)[C@H]2SC1` [Cefpedoxime] the “MIC Drug alone” value [3] was 0.03 to 64 µg/mL and the “MIC Drug alone” value [4] was 0.12 to 16 µg/mL.

`N[C@@H](C(=O)N[C@@H]1C(=O)N2C(C(=O)O)=C(Cl)CS[C@H]12)c1ccccc1` [Cefaclor] gave an MIC [3] of 0.25 to 64 µg/mL (≈ 0.68 to 174 µM) and an MIC [4] of 0.06 to 32 µg/mL (≈ 0.163 to 87 µM).

For `C[C@@H]1[C@H](O)[C@@H](C)/C=C/C=C/C=C/C=C/C=C/C=C/C=C/[C@H](O[C@@H]2O[C@H](C)[C@@H](O)[C@H](N)[C@@H]2O)C[C@@H]2O[C@](O)(C[C@@H](O)C[C@@H](O)[C@H](O)CC[C@@H](O)C[C@@H](O)CC(=O)O[C@H]1C)C[C@H](O)[C@H]2C(=O)O` [Amphotericin B], the “MIC Drug alone” value ([2]; Drug alone) was 0.25 to 2.0 µg/mL and the “MIC Drug alone” value [5] was 0.25 to 4 µg/mL.

Compound `CO[C@H]1/C=C/O[C@@]2(C)Oc3c(C)c(O)c4c(O)c(c(/C=N/N5CCN(C)CC5)c(O)c4c3C2=O)NC(=O)/C(C)=C\C=C\[C@H](C)[C@H](O)[C@@H](C)[C@@H](O)[C@@H](C)[C@H](OC(C)=O)[C@@H]1C` [Rifampicin] has an MIC [1] of 0.06 to 0.5 µg/mL.
